Measured values published in US20260183295A1, “METHODS AND COMPOSITIONS FOR TREATING CANCER” (Onconova Therapeutics, Inc., priority 2022, published 2026).

Experiments:
Experiment in all cases: CETSA-MS, MDA-MB-231 intact cells
Format in all cases: cell-based
Settings in all cases: 2 μM and 20 μM
COG8 = target: T1, COG8 (Homo sapiens, UniProt Q96MW5)
T1 construct: endogenous in cells; host or cells: MDA-MB-231
Protocol: (§1) TNBC MDA-MB-231 cells were grown at 37° C. in 5% CO2 and suspended in warm media and split into 4 equal volumes. […] Cells were incubated and then pelleted. Following pelleting, the cells were washed, resuspended, and heated in a thermal gradient. Following heating, the samples were flash frozen and lysed in lysis buffer, agitated by vortex, and sonicated prior to centrifugation. The supernatant was collected and denaturation buffer added. Cold acetone was then added to the cell samples, and protein collected by centrifugation. Pellets were then washed twice with cold acetone and the washed pellets prior to labeling.
(§2) The intact cell protein samples and lysate protein samples were then digested and labeled for mass spectrometry analysis according to the manufacturer's recommended protocols. Digested and labeled protein samples were analyzed by mass spectrometry proteomic analysis and the resulting protein targets were analyzed and plotted.

BMP2K = target: T2, BMP2K (Homo sapiens, UniProt Q9NSY1)
T2 construct: endogenous in cells; host or cells: MDA-MB-231
Protocol: as §1, §2

ECE1 = target: T3, ECE1 (Homo sapiens, UniProt P42892)
T3 construct: 148 targets unique to Compound 1 in MDA-MB-231 intact cells; endogenous in cells; host or cells: MDA-MB-231
Protocol: as §1, §2

LAMTOR2 = target: T4, LAMTOR2 (Homo sapiens, UniProt Q9Y2Q5)
T4 construct: endogenous in cells; host or cells: MDA-MB-231
Protocol: as §1, §2

PIP4P2 = target: T5, PIP4P2 (Homo sapiens, UniProt Q8N4L2)
T5 construct: endogenous in cells; host or cells: MDA-MB-231
Protocol: as §1, §2

MRC2 = target: T6, MRC2 (Homo sapiens, UniProt Q9UBG0)
T6 construct: endogenous in cells; host or cells: MDA-MB-231
Protocol: as §1, §2

AP2M1 = target: T7, AP2M1 (Homo sapiens, UniProt Q96CW1)
T7 construct: endogenous in cells; host or cells: MDA-MB-231
Protocol: as §1, §2

JMY = target: T8, JMY (Homo sapiens, UniProt Q8N9B5)
T8 construct: endogenous in cells; host or cells: MDA-MB-231
Protocol: as §1, §2

HSPG2 = target: T9, HSPG2 (Homo sapiens, UniProt P98160)
T9 construct: endogenous in cells; host or cells: MDA-MB-231
Protocol: as §1, §2

CHEK1 = target: T10, CHEK1 (Homo sapiens, UniProt O14757)
T10 construct: endogenous in cells; host or cells: MDA-MB-231
T10 sequence (O14757 1-476): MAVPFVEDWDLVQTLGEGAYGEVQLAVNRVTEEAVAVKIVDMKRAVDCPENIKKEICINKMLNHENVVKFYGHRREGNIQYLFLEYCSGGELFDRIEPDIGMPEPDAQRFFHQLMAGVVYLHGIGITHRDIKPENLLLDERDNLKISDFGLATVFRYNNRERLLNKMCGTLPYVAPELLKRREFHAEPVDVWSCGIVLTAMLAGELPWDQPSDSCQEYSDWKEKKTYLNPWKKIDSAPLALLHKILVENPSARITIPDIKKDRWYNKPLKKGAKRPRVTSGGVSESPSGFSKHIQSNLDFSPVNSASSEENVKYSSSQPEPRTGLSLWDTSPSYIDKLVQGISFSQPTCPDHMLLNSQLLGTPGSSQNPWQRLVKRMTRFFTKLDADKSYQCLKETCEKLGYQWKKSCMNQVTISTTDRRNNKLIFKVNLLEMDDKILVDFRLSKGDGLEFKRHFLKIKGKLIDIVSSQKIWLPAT
Protocol: as §1, §2

GALNT7 = target: T11, GALNT7 (Homo sapiens, UniProt Q86SF2)
T11 construct: 148 targets unique to Compound 1 in MDA-MB-231 intact cells; endogenous in cells; host or cells: MDA-MB-231
Protocol: as §1, §2

EIF4G1 = target: T12, EIF4G1 (Homo sapiens, UniProt Q04637)
T12 construct: endogenous in cells; host or cells: MDA-MB-231
Protocol: as §1, §2

NRP1 = target: T13, NRP1 (Homo sapiens, UniProt O14786)
T13 construct: endogenous in cells; host or cells: MDA-MB-231
Protocol: as §1, §2

DHX9 = target: T14, DHX9 (Homo sapiens, UniProt Q08211)
T14 construct: 148 targets unique to Compound 1 in MDA-MB-231 intact cells; endogenous in cells; host or cells: MDA-MB-231
Protocol: as §1, §2

AP2A1 = target: T15, AP2A1 (Homo sapiens, UniProt O95782)
T15 construct: endogenous in cells; host or cells: MDA-MB-231
Protocol: as §1, §2

INCENP = target: T16, INCENP (Homo sapiens, UniProt Q9NQS7)
T16 construct: endogenous in cells; host or cells: MDA-MB-231
Protocol: as §1, §2

UFL1 = target: T17, UFL1 (Homo sapiens, UniProt O94874)
T17 construct: endogenous in cells; host or cells: MDA-MB-231
Protocol: as §1, §2

MAN2A1 = target: T18, MAN2A1 (Homo sapiens, UniProt Q16706)
T18 construct: endogenous in cells; host or cells: MDA-MB-231
Protocol: as §1, §2

MPHOSPH8 = target: T19, MPHOSPH8 (Homo sapiens, UniProt Q99549)
T19 construct: endogenous in cells; host or cells: MDA-MB-231
Protocol: as §1, §2

IFT52 = target: T20, IFT52 (Homo sapiens, UniProt Q9Y366)
T20 construct: endogenous in cells; host or cells: MDA-MB-231
Protocol: as §1, §2

PUS7L = target: T21, PUS7L (Homo sapiens, UniProt Q9H0K6)
T21 construct: endogenous in cells; host or cells: MDA-MB-231
Protocol: as §1, §2

LYPLA2 = target: T22, LYPLA2 (Homo sapiens, UniProt O95372)
T22 construct: endogenous in cells; host or cells: MDA-MB-231
Protocol: as §1, §2

FASTKD5 = target: T23, FASTKD5 (Homo sapiens, UniProt Q7L8L6)
T23 construct: 148 targets unique to Compound 1 in MDA-MB-231 intact cells; endogenous in cells; host or cells: MDA-MB-231
Protocol: as §1, §2

AVEN = target: T24, AVEN (Homo sapiens, UniProt Q9NQS1)
T24 construct: endogenous in cells; host or cells: MDA-MB-231
Protocol: as §1, §2

RIPK 1 = target: T25, RIPK 1 (Homo sapiens, UniProt Q13546)
T25 construct: endogenous in cells; host or cells: MDA-MB-231
Protocol: as §1, §2

AHCTF1 = target: T26, AHCTF1 (Homo sapiens, UniProt Q8WYP5)
T26 construct: endogenous in cells; host or cells: MDA-MB-231
Protocol: as §1, §2

ARRB2 = target: T27, ARRB2 (Homo sapiens, UniProt P32121)
T27 construct: endogenous in cells; host or cells: MDA-MB-231
Protocol: as §1, §2

IGFBP7 = target: T28, IGFBP7 (Homo sapiens, UniProt Q16270)
T28 construct: endogenous in cells; host or cells: MDA-MB-231
Protocol: as §1, §2

CLUH = target: T29, CLUH (Homo sapiens, UniProt O75153)
T29 construct: endogenous in cells; host or cells: MDA-MB-231
Protocol: as §1, §2

CPD = target: T30, CPD (Homo sapiens, UniProt O75976)
T30 construct: 148 targets unique to Compound 1 in MDA-MB-231 intact cells; endogenous in cells; host or cells: MDA-MB-231
Protocol: as §1, §2

T26 sequence (Q8WYP5 whole entry): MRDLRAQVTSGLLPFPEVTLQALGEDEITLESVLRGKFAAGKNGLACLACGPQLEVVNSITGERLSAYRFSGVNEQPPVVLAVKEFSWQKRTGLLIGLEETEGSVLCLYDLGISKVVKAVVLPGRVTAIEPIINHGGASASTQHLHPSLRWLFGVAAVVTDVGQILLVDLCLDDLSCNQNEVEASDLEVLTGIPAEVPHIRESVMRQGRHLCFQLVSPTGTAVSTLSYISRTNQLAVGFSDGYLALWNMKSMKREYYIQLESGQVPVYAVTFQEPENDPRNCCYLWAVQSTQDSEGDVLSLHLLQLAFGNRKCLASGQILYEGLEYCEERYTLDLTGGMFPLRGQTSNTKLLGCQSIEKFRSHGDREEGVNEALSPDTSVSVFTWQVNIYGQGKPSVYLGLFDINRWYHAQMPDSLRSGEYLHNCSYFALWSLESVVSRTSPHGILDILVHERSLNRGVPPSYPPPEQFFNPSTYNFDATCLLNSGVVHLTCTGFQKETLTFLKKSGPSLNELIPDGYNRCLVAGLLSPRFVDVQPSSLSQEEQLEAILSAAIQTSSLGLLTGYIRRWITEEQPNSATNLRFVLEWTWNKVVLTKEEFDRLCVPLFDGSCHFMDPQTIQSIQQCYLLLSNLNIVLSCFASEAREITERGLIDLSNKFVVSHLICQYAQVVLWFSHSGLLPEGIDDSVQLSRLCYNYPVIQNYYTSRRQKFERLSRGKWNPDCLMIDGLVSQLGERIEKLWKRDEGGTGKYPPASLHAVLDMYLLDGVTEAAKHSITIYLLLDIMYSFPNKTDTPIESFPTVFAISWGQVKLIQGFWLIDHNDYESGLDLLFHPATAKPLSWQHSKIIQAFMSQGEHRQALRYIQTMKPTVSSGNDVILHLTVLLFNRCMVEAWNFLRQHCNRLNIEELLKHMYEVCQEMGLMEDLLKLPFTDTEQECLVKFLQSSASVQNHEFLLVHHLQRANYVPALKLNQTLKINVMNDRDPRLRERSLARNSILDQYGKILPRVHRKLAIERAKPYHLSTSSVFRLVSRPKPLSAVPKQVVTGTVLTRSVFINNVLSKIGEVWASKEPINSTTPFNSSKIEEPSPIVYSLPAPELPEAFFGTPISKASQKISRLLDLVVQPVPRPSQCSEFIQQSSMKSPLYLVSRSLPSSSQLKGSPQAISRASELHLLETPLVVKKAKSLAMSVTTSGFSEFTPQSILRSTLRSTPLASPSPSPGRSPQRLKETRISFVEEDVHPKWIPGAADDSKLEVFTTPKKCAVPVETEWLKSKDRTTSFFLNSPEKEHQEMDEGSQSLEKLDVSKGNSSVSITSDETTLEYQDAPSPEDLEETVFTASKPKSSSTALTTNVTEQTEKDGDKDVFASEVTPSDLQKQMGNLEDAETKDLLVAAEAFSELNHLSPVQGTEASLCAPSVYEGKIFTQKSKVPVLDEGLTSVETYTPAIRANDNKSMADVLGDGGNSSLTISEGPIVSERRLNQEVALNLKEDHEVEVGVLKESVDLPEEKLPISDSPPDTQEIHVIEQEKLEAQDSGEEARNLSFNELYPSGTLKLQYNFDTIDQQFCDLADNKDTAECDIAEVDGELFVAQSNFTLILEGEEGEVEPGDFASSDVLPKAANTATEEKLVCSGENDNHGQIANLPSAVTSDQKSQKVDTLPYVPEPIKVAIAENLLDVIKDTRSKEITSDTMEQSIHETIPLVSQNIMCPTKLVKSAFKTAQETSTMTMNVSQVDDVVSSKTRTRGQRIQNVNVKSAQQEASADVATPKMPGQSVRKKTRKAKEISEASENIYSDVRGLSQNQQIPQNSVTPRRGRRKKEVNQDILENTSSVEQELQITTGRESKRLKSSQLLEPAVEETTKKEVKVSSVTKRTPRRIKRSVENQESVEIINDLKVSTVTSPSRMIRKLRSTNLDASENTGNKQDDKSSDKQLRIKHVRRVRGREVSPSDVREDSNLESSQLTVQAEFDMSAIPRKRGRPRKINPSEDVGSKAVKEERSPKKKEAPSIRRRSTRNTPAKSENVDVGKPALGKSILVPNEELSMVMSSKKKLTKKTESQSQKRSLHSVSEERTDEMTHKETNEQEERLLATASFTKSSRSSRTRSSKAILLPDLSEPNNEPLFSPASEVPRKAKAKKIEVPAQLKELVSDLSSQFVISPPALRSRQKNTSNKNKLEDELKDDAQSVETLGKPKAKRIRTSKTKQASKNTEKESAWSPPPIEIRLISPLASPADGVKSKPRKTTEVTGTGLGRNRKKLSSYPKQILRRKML
T3 sequence (P42892 whole entry): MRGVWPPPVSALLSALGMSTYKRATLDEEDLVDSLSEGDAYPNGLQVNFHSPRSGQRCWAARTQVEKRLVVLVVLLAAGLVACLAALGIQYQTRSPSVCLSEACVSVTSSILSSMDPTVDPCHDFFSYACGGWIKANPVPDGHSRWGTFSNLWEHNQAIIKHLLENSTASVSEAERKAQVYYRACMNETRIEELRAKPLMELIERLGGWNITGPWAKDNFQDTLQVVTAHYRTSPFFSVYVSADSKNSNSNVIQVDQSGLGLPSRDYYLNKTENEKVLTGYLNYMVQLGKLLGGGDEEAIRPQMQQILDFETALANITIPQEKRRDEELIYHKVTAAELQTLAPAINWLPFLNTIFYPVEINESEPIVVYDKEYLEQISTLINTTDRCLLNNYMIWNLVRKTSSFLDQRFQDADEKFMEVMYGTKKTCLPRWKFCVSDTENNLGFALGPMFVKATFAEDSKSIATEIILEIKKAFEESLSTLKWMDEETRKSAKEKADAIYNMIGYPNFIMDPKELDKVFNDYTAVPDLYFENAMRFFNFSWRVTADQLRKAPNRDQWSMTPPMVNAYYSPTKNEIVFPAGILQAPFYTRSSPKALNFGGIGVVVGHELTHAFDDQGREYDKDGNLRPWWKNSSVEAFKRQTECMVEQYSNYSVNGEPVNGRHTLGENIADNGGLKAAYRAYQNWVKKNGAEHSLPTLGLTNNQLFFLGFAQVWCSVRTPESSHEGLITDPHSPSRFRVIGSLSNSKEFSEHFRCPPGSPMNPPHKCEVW
T17 sequence (O94874 whole entry): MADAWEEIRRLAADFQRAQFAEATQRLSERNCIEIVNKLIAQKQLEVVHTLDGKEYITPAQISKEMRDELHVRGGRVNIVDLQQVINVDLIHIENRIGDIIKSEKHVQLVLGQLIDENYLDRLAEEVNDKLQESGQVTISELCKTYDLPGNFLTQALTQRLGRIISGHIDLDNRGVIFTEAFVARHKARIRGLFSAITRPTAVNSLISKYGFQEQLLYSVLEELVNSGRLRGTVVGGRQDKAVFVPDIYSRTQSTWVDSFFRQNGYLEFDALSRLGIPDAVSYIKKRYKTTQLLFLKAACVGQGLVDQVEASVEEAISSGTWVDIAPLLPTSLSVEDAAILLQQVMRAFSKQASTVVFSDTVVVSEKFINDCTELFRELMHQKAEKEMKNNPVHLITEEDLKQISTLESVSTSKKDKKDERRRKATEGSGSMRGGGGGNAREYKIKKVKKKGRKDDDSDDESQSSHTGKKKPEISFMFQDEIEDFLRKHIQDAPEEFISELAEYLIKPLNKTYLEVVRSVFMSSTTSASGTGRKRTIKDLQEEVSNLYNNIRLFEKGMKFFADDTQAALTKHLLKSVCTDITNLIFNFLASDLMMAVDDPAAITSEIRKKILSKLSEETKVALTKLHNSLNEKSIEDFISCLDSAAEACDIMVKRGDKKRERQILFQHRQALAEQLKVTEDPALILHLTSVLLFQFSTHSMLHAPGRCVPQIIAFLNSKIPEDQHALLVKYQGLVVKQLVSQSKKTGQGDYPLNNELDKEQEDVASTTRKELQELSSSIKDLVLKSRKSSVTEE
T29 sequence (O75153 whole entry): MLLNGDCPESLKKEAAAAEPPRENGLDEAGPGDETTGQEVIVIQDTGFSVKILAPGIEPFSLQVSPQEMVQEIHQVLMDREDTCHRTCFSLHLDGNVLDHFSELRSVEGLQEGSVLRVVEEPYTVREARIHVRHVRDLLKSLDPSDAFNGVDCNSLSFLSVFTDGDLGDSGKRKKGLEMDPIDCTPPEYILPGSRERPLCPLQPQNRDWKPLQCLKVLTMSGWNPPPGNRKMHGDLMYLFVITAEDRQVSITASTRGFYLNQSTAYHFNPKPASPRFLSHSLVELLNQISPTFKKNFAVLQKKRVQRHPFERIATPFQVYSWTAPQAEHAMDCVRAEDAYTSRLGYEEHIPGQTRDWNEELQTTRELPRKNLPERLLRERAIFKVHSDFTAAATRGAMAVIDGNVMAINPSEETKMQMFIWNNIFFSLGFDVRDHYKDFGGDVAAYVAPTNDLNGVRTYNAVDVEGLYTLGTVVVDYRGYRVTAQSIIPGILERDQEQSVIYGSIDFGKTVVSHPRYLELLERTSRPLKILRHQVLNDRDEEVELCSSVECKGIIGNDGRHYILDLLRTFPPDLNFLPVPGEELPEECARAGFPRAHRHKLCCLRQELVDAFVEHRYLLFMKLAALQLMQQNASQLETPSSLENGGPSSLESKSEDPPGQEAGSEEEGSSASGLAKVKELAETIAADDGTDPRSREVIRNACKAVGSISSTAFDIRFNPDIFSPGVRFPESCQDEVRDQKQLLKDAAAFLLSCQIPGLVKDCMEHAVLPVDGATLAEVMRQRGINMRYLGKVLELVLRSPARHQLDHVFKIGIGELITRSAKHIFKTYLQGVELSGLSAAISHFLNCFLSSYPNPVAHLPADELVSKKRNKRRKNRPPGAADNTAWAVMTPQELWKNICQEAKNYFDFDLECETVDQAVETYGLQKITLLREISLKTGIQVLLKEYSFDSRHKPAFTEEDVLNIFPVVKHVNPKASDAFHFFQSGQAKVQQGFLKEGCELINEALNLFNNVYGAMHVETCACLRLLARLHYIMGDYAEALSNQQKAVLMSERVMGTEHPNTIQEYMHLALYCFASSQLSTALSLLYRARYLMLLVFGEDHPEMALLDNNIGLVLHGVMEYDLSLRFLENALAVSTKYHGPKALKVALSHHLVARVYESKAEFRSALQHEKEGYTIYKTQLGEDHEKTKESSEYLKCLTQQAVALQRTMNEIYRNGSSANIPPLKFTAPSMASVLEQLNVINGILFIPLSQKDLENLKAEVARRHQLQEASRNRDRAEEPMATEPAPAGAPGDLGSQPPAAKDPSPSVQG

## CN1CCN(c2ccc(Nc3ncc4cc(C#N)c(=O)n(C5CCCC5)c4n3)cc2)CC1 [Compound 1, 8-cyclopentyl-2-((4-(4-methylpiperazin-1-yl)phenyl)amino)-7-oxo-7,8-dihydropyrido[2,3-d]pyrimidine-6-carbonitrile]
COG8
  Group (CETSA-MS thermal shift): Destabilization
BMP2K
  Group (CETSA-MS thermal shift): Stabilization
ECE1
  Group (CETSA-MS thermal shift): Stabilization
LAMTOR2
  Group (CETSA-MS thermal shift): Stabilization
PIP4P2
  Group (CETSA-MS thermal shift): Stabilization
MRC2
  Group (CETSA-MS thermal shift): Stabilization
AP2M1
  Group (CETSA-MS thermal shift): Destabilization
JMY
  Group (CETSA-MS thermal shift): Stabilization
HSPG2
  Group (CETSA-MS thermal shift): Stabilization
CHEK1
  Group (CETSA-MS thermal shift): Destabilization
GALNT7
  Group (CETSA-MS thermal shift): Stabilization
EIF4G1
  Group (CETSA-MS thermal shift): Destabilization
NRP1
  Group (CETSA-MS thermal shift): Stabilization
DHX9
  Group (CETSA-MS thermal shift): Stabilization
AP2A1
  Group (CETSA-MS thermal shift): Destabilization
INCENP
  Group (CETSA-MS thermal shift): Stabilization
UFL1
  Group (CETSA-MS thermal shift): Stabilization
MAN2A1
  Group (CETSA-MS thermal shift): Stabilization
MPHOSPH8
  Group (CETSA-MS thermal shift): Stabilization
IFT52
  Group (CETSA-MS thermal shift): Stabilization
PUS7L
  Group (CETSA-MS thermal shift): Destabilization
LYPLA2
  Group (CETSA-MS thermal shift): Destabilization
FASTKD5
  Group (CETSA-MS thermal shift): Stabilization
AVEN
  Group (CETSA-MS thermal shift): Destabilization
RIPK 1
  Group (CETSA-MS thermal shift): Stabilization
AHCTF1
  Group (CETSA-MS thermal shift): Stabilization
ARRB2
  Group (CETSA-MS thermal shift): Stabilization
IGFBP7
  Group (CETSA-MS thermal shift): Stabilization
CLUH
  Group (CETSA-MS thermal shift): Stabilization
CPD
  Group (CETSA-MS thermal shift): Stabilization
